From US20110251126A1, “INTESTINAL TREATMENT” (priority 2008, published 2011)
Ends that are not written are not given here.

Experiments:
[1] = test system: small intestinal crypts; assay: Surviving small intestinal crypts after 13Gy total body X-irradiation; assay type: in vivo, mice; details: analyzed four days following irradiation
Method: Twenty four 8-10 week old C57/B6 male mice randomized into three groups of each eight animals. Animals received PP[2-36] (0.1 mg/kg) s.c. twice daily for three days either prior or post radiation. Controls received vehicle both prior and post radiation.
Group 1 (pretreatment): PP[2-36] (0.1 mg/kg) twice daily on day −3, −2, −1; radiation on day 0; vehicle on day 0, +1, +2, +3. Group 2 (post treatment): Vehicle twice daily on day −3, −2, −1; radiation on day 0; PP[2-36] (0.1 mg/kg twice daily on day 0, +1, +2, +3. Group 3 (control): Vehicle twice daily on day −3, −2, −1; radiation on day 0; vehicle twice daily on day 0, +1, +2, +3. All animals were irradiated (day 0) to a single dose of 13Gy total body X-irradiation. Irradiation was performed using a Pantak HF320 X-ray set (Agfa NDT Ltd, Reading, UK). The machine was operated at 300 kV, 10 mA. The X-ray tube was fitted with additional filtration to give a radiation quality of 2.3 mm Cu half-value layer (HVL). Mice were restrained in a jig, positioned at a distance of 700 mm from the focus of the X-ray tube. Irradiation was delivered at a dose rate of 75.5 cGy/min. […] For each animal ten intestinal circumferences were analyzed—a circumference is equivalent to a given length of intestine and therefore a convenient baseline unit of length. The number of surviving crypts per circumference was scored and the average per group determined. […]

[2] = test system: small intestinal crypt cells; assay: Intestinal crypt cell proliferation (BrdU incorporation, cell positional scoring); assay type: in vivo, mice; details: 12 hours after dose
Method: 3 Groups of 8 male 8-10 weeks old C57/B6 mice were treated with group 1: Vehicle, group 2:PP(2-36) 0,1 mg/kg single injection s.c., group 3: PP(2-36) 1,0 mg/kg single injection s.c. Animals were euthanized 12 hours following the single injection of either dose. Vehicle was used as control. Prior to euthanasia all animals were given BrdU (Bromodeoxyuridine) i.p.—a marker for cell proliferation. The small intestine and colon were then removed and fixed in Carnoy's solution. From the Carnoy's fixed small intestinal material, paraffin blocks were generated and sectioned. Slides were immunolabelled to reveal the BrdU incorporation and analyzed on a cell positional basis (i.e. location of the individual cell in the hierarchy of cells in the crypt) to identify any induced proliferative changes (BrdU incorporation and mitotic counts). Fifty half crypts per mouse were scored on a cell positional basis, generating 400 frequency scores per group of 8 animals from which the means were generated and effects analyzed.

## hPP2-36 (PLEPVYPGDNATPEQMAQYAADLRRYINMLTRPRY-NH2; listed as Homo sapiens) [PP[2-36]]
[1]; post treatment 0.1 mg/kg s.c. twice daily for four days post irradiation, non-significant p>0.05
  increase in number of surviving crypts compared to vehicle control: 47%
[1]; pretreatment 0.1 mg/kg s.c. twice daily for three days prior irradiation, p<0.05
  increase in number of surviving intestine crypts compared to vehicle control: two
[2]; 0,1 mg/kg single injection s.c.
  level of proliferation in the small intestinal crypts: increased proliferation at cell positions 6-13
[2]; 1 mg/kg single injection s.c.
  level of proliferation in the small intestinal crypts: stimulation was evident throughout the proliferative zone
